{"source": "patent US20230270148A1", "about": "“BITTER BLOCKERS AND RELATED METHODS OF USE” (Conagen Inc., priority 2020, published 2023)", "key": {"[1]": {"test_system": "0.25% caffeine solution", "assay": "Sensory evaluation: bitterness reduction of a caffeine solution", "assay_type": "in vivo", "conditions": "one trained sensory evaluator, vs control, dosage (ppm) per sample (20 to 50-100 ppm)", "description": "The bitter blocker candidates listed in Table 1 were prepared into a 1% sample solution with propylene glycol (i.e., 1 g of bitter blocker per 100 ml of propylene glycol) and heated to ensure complete solubilization. […] A trained sensory evaluator was asked to estimate the perceived bitterness reduction against the control, as well as to provide comments on how the addition of the individual sample solution modulated the taste and mouth feel profile of the resulting caffeine solution."}, "[2]": {"test_system": "melted dark chocolate pieces with 100% dark cacao", "assay": "Sensory evaluation: bitterness reduction of dark chocolate pieces", "assay_type": "in vivo", "conditions": "dosage 50 or 100 ppm per sample", "description": "(§1) The bitterness blocker candidates listed in Table 1 were prepared into a 1% sample solution with propylene glycol and heated to ensure complete solubilization. […] Individually, the respective sample solution was added to melted dark chocolate pieces with 100% dark cacao. A trained sensory evaluator was asked to estimate the perceived bitterness reduction against the control, as well as to provide comments on how the addition of the individual sample solution modulated the taste and mouth feel profile of the resulting melted dark chocolate pieces."}, "[3]": {"test_system": "dark roast coffee", "assay": "Sensory evaluation: bitterness reduction of dark roast coffee", "assay_type": "in vivo", "conditions": "dosage 50 or 100 ppm per sample", "description": "(§2) The bitterness blocker candidates listed in Table 1 were prepared into a 1% sample solution with propylene glycol and heated to ensure complete solubilization. […] A trained sensory evaluator was asked to estimate the perceived bitterness reduction against the control, as well as to provide comments on how the addition of the individual sample solution modulated the taste and mouth feel profile of the resulting dark roast coffee."}, "[4]": {"test_system": "cough syrup DELSYM (dextromethorphan HBr)", "assay": "Sensory evaluation: bitterness reduction of cough syrup DELSYM", "assay_type": "in vivo", "conditions": "dosage 50 or 100 ppm per sample", "description": "as §1, with “a cough syrup sold under the trade name DELSYM®. The bitter-tasting agent contained in the cough syrup were dextromethorphan HBr USP 30 mg (as measured for each 5 ml teaspoon, i.e., 6000 mg/l of dextromethorphan).” for “melted dark chocolate pieces with 100% dark cacao.”, “cough syrup.” for “melted dark chocolate pieces.”"}, "[5]": {"test_system": "cough syrup ROBITUSSIN DM (dextromethorphan HBr and guaifenesin)", "assay": "Sensory evaluation: bitterness reduction of cough syrup ROBITUSSIN DM", "assay_type": "in vivo", "conditions": "dosage 50 or 100 ppm per sample", "description": "as §1, with “a cough syrup sold under the trade name ROBITUSSIN® DM. The bitter-tasting agents contained in the cough syrup were dextromethorphan HBr USP 20 mg and guaifenesin USP 400 mg (as measured for each 20 ml serving, or 21000 mg/l of bitter tastants in total).” for “melted dark chocolate pieces with 100% dark cacao.”, “cough syrup.” for “melted dark chocolate pieces.”"}, "[6]": {"test_system": "CBD isolate nanoemulsion", "assay": "Sensory evaluation: bitterness reduction of CBD isolate", "assay_type": "in vivo", "conditions": "dosage 50 or 100 ppm per sample", "description": "as §2, with “solubilization. […] A CBD isolate was emulsified into a water-soluble nanoemulsion first, to which was added the respective sample solution.” for “solubilization.”, “nanoemulsion.” for “dark roast coffee.”"}, "[7]": {"test_system": "caffeine in water", "assay": "Two-alternative forced choice (2AFC) difference test", "assay_type": "in vivo", "description": "The bitter blocker candidates BB09, BB11, and BB13 were subject to a two-alternative forced choice (2AFC) difference test wherein panelists were presented Control Caffeine solutions and Test solutions containing caffeine and one of three bitterness blocker candidates (BB09, BB 11, or BB13). Panelists were asked to evaluate the two samples and answer the question, “which one is more hitter?”\nBB09 and BB11 were tested first. Three ounces of control (caffeine in water), BB09 in caffeine water, and BB11 in caffeine water were presented at room temperature in separate plastic souffle cups labeled with 3-digit codes. Ten sensory trained panelists evaluated each sample in three repetitions with a 10 minute break between repetitions. Panelists then completed the 2AFC. Data was collected on EveQuestion and analyzed on XLSTAT. Testing was conducted at Sensations Research according to FEMA guidelines.\nBB13 was tested separately. Two ounces of control (caffeine in water), BB13 in caffeine water were presented at room temperature in separate plastic souffle cups labeled with 3-digit codes. Fifteen participants evaluated each sample in two repetitions with a 10 minute break between repetitions for a total of thirty evaluations as per the FEMA guidelines. Panelists then completed the 2AFC to identify the more bitter sample. Data was collected and analyzed on Compusense."}, "[8]": {"test_system": "bitter-responsive human taste bud tissue-derived cells (hTBEC)", "assay": "ATP secretion detection assay (luminescence)", "assay_type": "cell-based", "description": "The bitter blocker candidates were further characterized using bitter-responsive human taste bud tissue-derived cells (hTBEC) platforms and bioassays. Bitter-responsive hTBECs were treated with hitter blocker candidates and various bitter agonists to assess the efficacy of each bitter blocker candidate in reducing the bitterness of each of the various bitter agonists.\nOne industry standard bitter agonist was used as a control (L-Praziquantel), and five bitter blocker controls were used (Senomyx BB68, STX-001, sodium gluconate, eridictyol, and homoeridictyol).\nBB09, BB11, and BB13 were first tested at various concentrations in combination with 100 μM Dextromethorphan-HBr.\nNext, bitter blocker concentration ranges were narrowed (100 μM-1,000 μM) and compared to a fixed concentration of stimulus. […] BB13 was evaluated further by real time ATP secretion detection in pooled hTBEC 66 cells treated with 300 μM Theobromine.\nEach culture was treated with BB09, BB11, BB13, STX001, or Senomyx BB68, as well as either Dextromethorphan-HBr at 1000 μM (FIGS. 18A-18C), Theobromine at 1,000 μM (FIGS. 19A-19C), Rebaudioside A at 1 mM (FIGS. 20A-20C), or Caffeine at 3 mM (FIGS. 21A-21C)."}}, "data": [{"molecule": "COc1cc([C@@H]2CC(=O)c3c(O)cc(O)cc3O2)ccc1O[C@@H]1O[C@H](CO)[C@@H](O)[C@H](O)[C@H]1O", "note": "[BB11, Homoeriodictyol 4′-O-glucoside]", "values": [{"measurement": "Estimated % bitterness reduction", "setting": "[1]", "value": "60-80% ^"}, {"measurement": "Comments", "setting": "[2]", "value": "Good bitterness reduction but"}, {"measurement": "Estimated % bitterness reduction", "setting": "[2]", "value": 60, "unit": "%"}, {"measurement": "Estimated % bitterness reduction", "setting": "[3]; caffeine about 740 mg/l", "value": 80, "unit": "%"}, {"measurement": "Comments", "setting": "[3]", "value": "Nice upfront bitterness reduction"}, {"measurement": "Estimated % bitterness reduction", "setting": "[4]; 6000 mg/l of dextromethorphan", "value": 60, "unit": "%"}, {"measurement": "Comments", "setting": "[4]", "value": "Less bitter, smoother, more"}, {"measurement": "Estimated % bitterness reduction", "setting": "[5]; 21000 mg/l of bitter tastants", "value": 60, "unit": "%"}, {"measurement": "Comments", "setting": "[5]", "value": "Less bitter, smoother, more"}, {"measurement": "Comments", "setting": "[6]", "value": "Nice upfront bitterness reduction"}, {"measurement": "Estimated % bitterness reduction", "setting": "[6]", "value": 60, "unit": "%"}, {"measurement": "Significant?", "setting": "[7]; 2AFC, 90% confidence level, which sample is more bitter", "value": "Yes,"}, {"measurement": "# Selected Variant (which is more bitter?)", "setting": "[7]; of 30 responses (10 panelists, 3 evaluations), control caffeine in water vs variant in caffeine water", "value": 10}, {"measurement": "inhibition of luminescence activity of Dextromethorphan-HBr (ATP secretion)", "setting": "[8]; 100 μM Dextromethorphan-HBr, various blocker concentrations (FIG. 12)", "value": "able to inhibit"}, {"measurement": "inhibition of the L-Praziquantel response (ATP secretion)", "setting": "[8]; 400 μM L-Praziquantel, pooled donor-derived hTBEC (FIG. 13)", "value": "showed inhibition"}, {"measurement": "inhibition of the bitter agonists (ATP secretion)", "setting": "[8]; hTBEC 66, hTBEC 56, hTBEC Donor H, Dextromethorphan-HBr at 1000 μM, Theobromine 1,000 μM, Rebaudioside A 1 mM or Caffeine 3 mM (FIGS. 18-21)", "value": "trends of inhibition in most cases"}]}]}
